Assay results published in US20260285847A1, “SYMMETRIC AMINOINDOLE-LINKED TRIAZINE FOR A DUAL EFFECT ON ALPHA-SYNUCLEIN AND TAU ISOFORM 2N4R FIBRILLIZATION” (Purdue Research Foundation, priority 2023, published 2026).
Entries after “also recorded” stand apart in the source; their conditions may differ.

Assays:
tau isoform 2N4R [1] = target: T1, tau isoform 2N4R (Homo sapiens, UniProt P10636); test: ThT fluorescence assay of tau isoform 2N4R fibril formation; assay type: biochemical; details: compound 100 μM, tau 2N4R 6 μM
T1 construct: made in house; host or cells: E. coli BL21(DE3)
T1 sequence (P10636 1-441 isoform P10636-8): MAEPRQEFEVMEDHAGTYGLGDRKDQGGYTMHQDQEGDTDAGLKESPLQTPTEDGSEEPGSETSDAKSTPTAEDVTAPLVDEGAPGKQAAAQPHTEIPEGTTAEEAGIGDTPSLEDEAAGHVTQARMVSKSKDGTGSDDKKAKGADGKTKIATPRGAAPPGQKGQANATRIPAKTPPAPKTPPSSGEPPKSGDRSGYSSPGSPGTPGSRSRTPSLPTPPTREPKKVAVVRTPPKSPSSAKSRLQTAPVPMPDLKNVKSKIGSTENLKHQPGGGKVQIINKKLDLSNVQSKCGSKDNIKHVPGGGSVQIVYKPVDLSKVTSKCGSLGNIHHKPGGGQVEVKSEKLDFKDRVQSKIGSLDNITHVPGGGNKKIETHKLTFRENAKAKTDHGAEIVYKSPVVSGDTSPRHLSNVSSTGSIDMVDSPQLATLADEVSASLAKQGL
Procedure: (§1) Chemical and peptide source. DMSO and thioflavin-T (ThT) were purchased from Alfa Aesar (Ward Hill, MA). Procuration of recombinant α-syn was from rPeptide (WatKinsville, GA). The recombinant p-tau isoform 1N4R was prepared as published previously.^31, 36 Concerning the preparation of tau 2N4R, bacterial expression plasmid consisting of the vector pRK172 carrying a cDNA encoding the human Tau 2N4R isoform was a kind gift of Dr. David Eliezer (Weill Cornell Medicine). For protein expression, E. coli BL21(DE3) cells were transformed with the plasmid and grown in LB media supplemented with ampicillin (100 μg/mL). Protein over-expression was induced by the addition of 1 mM IPTG for 4 h at 37° C., and cells were pelleted by centrifugation at 6,000 g for 15 min at 4° C. The cells were resuspended in lysis buffer (20 mM MES, 400 mM NaCl, 0.2 mM MgCl2, 1 mM EGTA, protease inhibitor cocktail (P8340, Sigma Aldrich), 0.25 mg/mL lysozyme, and 1 μg/mL DNase I, pH 6.8) and lysed by a French press cell disruptor at 4° C., and the lysate was boiled for 20 min. Denatured proteins were pelleted by centrifugation at 30,000 g for 30 min at 4° C., and the supernatant was dialyzed overnight against cation exchange buffer (20 mM MES, 50 mM NaCl, 1 mM MgCl2, 1 mM EGTA, 2 mM DTT, 0.1 mM PMSF, pH 6.8). The dialysate was loaded onto a HiPrep SP HP column, and proteins were eluted with a linear gradient ranging from 50 mM to 1 M NaCl. Fractions containing tau isoform 2N4R were pooled, and the resulting protein solution was dialyzed against PBS (pH 7.4) and stored at −80° C.

tau isoform 2N4R [2] = target: T1, tau isoform 2N4R; test: TEM of tau isoform 2N4R fibrils; assay type: biochemical; details: protein 60 μM, compound 600 μM (1:10), 24 hours at 37° C.
Procedure: as §1
To confirm the general anti-fibrillar effect of compound 10, transmission electron microscopy (TEM) was used as an orthogonal assay. After incubating recombinant proteins (at 60 μM) with 600 μM compound 10 for 24 hours at 37° C., TEM was utilized to detect fibril formation.^32 A volume of 10 μL was applied on a 400-mesh Formvar-carbon-coated copper grid (Electron Microscopy Sciences, Hatfield, PA). The grids were incubated for 1 minute and washed three times with distilled water. […]

α-syn = target: T2, α-syn (Homo sapiens, UniProt P37840); test: Transmission electron microscopy (TEM) of α-syn fibrils; assay type: biochemical; details: protein 60 μM, compound 600 μM (1:10), 24 hours at 37° C.
T2 construct: purchased rPeptide
Procedure: (§2) To confirm the general anti-fibrillar effect of compound 10, transmission electron microscopy (TEM) was used as an orthogonal assay. After incubating recombinant proteins (at 60 μM) with 600 μM compound 10 for 24 hours at 37° C., TEM was utilized to detect fibril formation.^32 A volume of 10 μL was applied on a 400-mesh Formvar-carbon-coated copper grid (Electron Microscopy Sciences, Hatfield, PA). The grids were incubated for 1 minute and washed three times with distilled water. They were carefully air-dried and incubated for 1 minute in a fresh solution of 1% uranyl acetate. Samples were air-dried and observed using a transmission microscope. Visualization of the grids was performed with transmission electron microscopy (JEOL 1400 Flash, Japan). Acquisition of pictures was performed with the following settings: accelerating voltage of 100 kV and magnification of 40k.

p-tau isoform 1N4R = target: T3, p-tau isoform 1N4R (Homo sapiens, UniProt P10636); assay type: biochemical; details: protein 60 μM, compound 600 μM (1:10), 24 hours at 37° C.
T3 construct: made in house
T3 sequence (P10636 1-412 isoform P10636-7): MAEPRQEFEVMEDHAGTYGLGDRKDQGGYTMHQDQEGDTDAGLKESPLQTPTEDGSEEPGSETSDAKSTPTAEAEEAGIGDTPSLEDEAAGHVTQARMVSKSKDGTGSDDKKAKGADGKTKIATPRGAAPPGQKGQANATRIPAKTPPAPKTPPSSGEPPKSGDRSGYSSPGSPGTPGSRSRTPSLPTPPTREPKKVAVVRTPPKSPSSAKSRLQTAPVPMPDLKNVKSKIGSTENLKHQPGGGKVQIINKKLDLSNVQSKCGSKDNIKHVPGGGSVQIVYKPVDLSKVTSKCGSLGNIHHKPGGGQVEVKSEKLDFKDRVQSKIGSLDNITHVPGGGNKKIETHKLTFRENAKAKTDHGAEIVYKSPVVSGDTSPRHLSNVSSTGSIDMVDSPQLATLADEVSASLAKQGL
Procedure: as §2

[3] = system: paired helical filaments isolated from AD brains; test: Ex vivo disaggregation of paired helical filaments (TEM); parameters: species or system human; details: compound 50 μM, 120 hours at 37° C., vs 1.5% DMSO
Source text: Amyloid-β plaques were purified from postmortem human AD brains obtained from patients diagnosed with advanced Alzheimer's (Braak stage V or VI) (Tissue Biobank at Case Western Reserve University-Cleveland Clinic) using ultracentrifugation with a sucrose gradient and cell sorting, as previously published.^38-39 Purified amyloid-β plaques were examined with polarized and fluorescence microscopy (Congo Red and Thioflavin-S staining) and scanning electron microscopy. Each aliquot of amyloid-β plaques was solubilized with 60 μL of 10 mM PBS buffer (pH 7.4). One extraction consisted of 0.28 mg/ml of protein, as measured with nanodrop (A260/280 nm). A volume of 20 μL of extraction was incubated with 1.5% DMSO (control) or compound 10 (50 μM) for 120 hours at 37° C. prior to visualization by transmission electron microscopy.
The protein quantification of the plaques isolated from AD brains were measured with nanodrop. […] Compound 10 was tested at 50 μM based on the protein levels and results obtained with PICUP experiments (FIG. 7). AP-plaque samples were incubated with 1.5% DMSO (control) or compound 10 (50 μM) in 10 mM PBS buffer (pH 7.4) for 120 hours at 37° C. prior to visualization by transmission electron microscopy. During the visualization of the grids, several paired helical filaments were observed.

tau isoform 2N4R [4] = target: T1, tau isoform 2N4R; test: PICUP cross-linking assay of tau oligomer formation; assay type: biochemical
Procedure: as §1
PICUP is a technique in which oligomer formation is induced by cross-linking. To induce oligomerization by cross-linking, α-syn (from Rpeptide, LLC) and tau isoform 2N4R were diluted in 10 mM phosphate buffer (pH 7.4) to reach a final concentration of 10 μM. Different compounds were added to the protein solution at a final concentration of 50 μM, resulting in a molar ratio of 1:5. […]

**Q.** For `c1cc(Nc2ncnc(Nc3cccc4[nH]ccc34)n2)c2cc[nH]c2c1` [Compound 10, N2,N4-bis(1H-indol-4-yl)-1,3,5-triazine-2,4-diamine], which “elongation rate of tau isoform 2N4R fibrillization” value (tau isoform 2N4R [1]) is on record?
**A.** Its value is “slower elongation rate”.

**Q.** And the “tau isoform 2N4R fibrillization (in words)” value (tau isoform 2N4R [1]; heparin 1.5 μM)?
**A.** The value was “markedly inhibited tau isoform 2N4R fibrillization”.

**Q.** And the “tau isoform 2N4R fibril ultrastructure (TEM)” value (tau isoform 2N4R [2])?
**A.** Its value is “needle-shaped short fibrils; also recorded: very short needle shaped fibrils admixed with debris”.

**Q.** What about the “α-syn fibril ultrastructure (TEM)” value (α-syn) of the same molecule?
**A.** Its value is “a range of shorter fibrils to amorphous protein; also recorded: rare short fibrils”.

**Q.** And the “p-tau isoform 1N4R fibril ultrastructure (TEM)” value (p-tau isoform 1N4R)?
**A.** The value was “less fibrils resulted from this treatment”.

**Q.** What about the “disaggregation of paired helical filaments (TEM, in words)” value [3] of the same molecule?
**A.** Its value is “shorter paired helical filaments; also recorded: disaggregated human Aβ plaques and NFTs”.

**Q.** What about the “tau oligomer formation (PICUP, in words)” value (tau isoform 2N4R [4]; compound 50 μM, high molecular weight oligomers around 190 kDa) of the same molecule?
**A.** Its value is “inhibited both α-syn and tau oligomer formation”.

**Q.** And the “tau isoform 2N4R oligomerization at different concentrations (PICUP)” value (tau isoform 2N4R [4]; compound 3.125 to 50 μM)?
**A.** Its value is “effective in reducing oligomerization of α-syn and tau isoform 2N4R in a dose-dependent manner”.
